How the values were obtained:
[1] = tested on: A375 cells; assay: cells; conditions: Homo sapiens, A-375, 72 h, read-out: A375 XTT IC50 uM
Procedure: The cell viability assay in A375 cells (A375 ICW IC50 in Table 2) is set up in a 96-well plate format using XTT. XTT is a yellow tetrazolium salt that is cleaved to an orange formazan dye by the mitochondria of metabolically active cells. The procedure allows for rapid determination in a microtitre plate, to give reproducible and sensitive results.
A375 cells are grown in DMEM media containing 10% FBS and 1 mM sodium pyruvate. Cells are trypsinized and seeded at 1000 cells/well. After allowing the cells to adhere overnight, compound is added to the wells at the following final concentrations: 10, 3, 1, 0.3, 0.1, 0.03, 0.01, 0.001, and 0.0001 μM. The assay is set up in triplicates for each concentration. DMSO concentrations are kept at 0.5% /well. Three days after compound addition, the XTT assay is performed. Wells are washed once with PBS. 100 μL of DMEM media without phenol red or FBS is added to each well. […] 50 μL of the working solution of XTT is added to each well. […] The absorbance from wells with media and XTT alone, but without cells is considered the blank and subtracted from readings from all wells.
Percentage viability is calculated considering the blank subtracted value from wells treated with DMSO alone as 100% viable. IC50 values are calculated using Graphpad Prism, using non-linear regression curve fit for sigmoidal dose response (variable slope).

[2] = tested on: phospho-ERK1/2 in A375 cells; assay: cells; conditions: Homo sapiens, A-375, 3 h, read-out: A375 ICW IC50
Procedure: Human melanoma A375 cells were seeded at 50,000 cells per well in 100 μl growth medium in Costar 96 well black clear bottom plates and placed at 37° C./5% CO2 over night. Test compounds were diluted in DMSO to generate a concentration curve. A 5 mM stock was used for the highest concentration at 500 times; to yield a final concentration of 10 μM with 3-fold dilutions down to 0.0001 μM. 1 μl of diluted compound was added to 500 μl cell culture media and mixed well. Media was removed from cells and 200 μl of media containing compound was added. Cells were treated for 3 hrs with compound at 37° C., 5% CO2.
After the compound incubation, cells were washed once with PBS (Mg^++,Ca^++) and fixed in 4% paraformaldehyde/PBS for 1 hr at room temperature. Following fixation, cells were washed three times with PBS/0.1% TritonX-100(PBST), and then blocked with 5% skimmed milk/PBST, for 1-2 hr. 50 μL per well primary antibody was added (rabbit-anti-phospho-ERK1/2) at 1:500 in 5% skimmed milk/PBST and incubated overnight at 4° C. Cells were washed four times with 100 μl DELFIA wash buffer and 50 μL per well secondary antibody was added (DELFIA-EU-N1-labeled anti-rabbit antibody) at 1:3000 in DELFIA assay buffer and incubated for 2 hr at room temperature in the dark (covered). Cells were washed 4× with 100 μl DELFIA wash buffer. 50 μL per well Wallac-DELFIA enhancement solution was added. […]

[3] = molecular target: activated MAP kinase 2/ERK2 (Homo sapiens (Human), UniProt P28482); assay: biochemical
[4] = molecular target: recombinant human activated BRAF (V599E) kinase (Homo sapiens (Human), UniProt P15056, V600E); assay: biochemical
Chain of recombinant human activated BRAF (V599E) kinase (P15056 417-766 V600E limits assumed): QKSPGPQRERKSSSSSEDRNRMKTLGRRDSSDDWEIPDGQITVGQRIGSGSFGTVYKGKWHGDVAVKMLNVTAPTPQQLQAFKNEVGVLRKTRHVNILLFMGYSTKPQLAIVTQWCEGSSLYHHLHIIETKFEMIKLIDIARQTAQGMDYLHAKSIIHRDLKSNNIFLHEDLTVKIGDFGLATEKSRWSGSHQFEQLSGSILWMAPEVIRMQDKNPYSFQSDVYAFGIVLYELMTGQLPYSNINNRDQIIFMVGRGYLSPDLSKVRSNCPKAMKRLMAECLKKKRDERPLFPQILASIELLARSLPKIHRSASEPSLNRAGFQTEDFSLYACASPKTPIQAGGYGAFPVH

Chain of activated MAP kinase 2/ERK2 (P28482 whole entry, looked up): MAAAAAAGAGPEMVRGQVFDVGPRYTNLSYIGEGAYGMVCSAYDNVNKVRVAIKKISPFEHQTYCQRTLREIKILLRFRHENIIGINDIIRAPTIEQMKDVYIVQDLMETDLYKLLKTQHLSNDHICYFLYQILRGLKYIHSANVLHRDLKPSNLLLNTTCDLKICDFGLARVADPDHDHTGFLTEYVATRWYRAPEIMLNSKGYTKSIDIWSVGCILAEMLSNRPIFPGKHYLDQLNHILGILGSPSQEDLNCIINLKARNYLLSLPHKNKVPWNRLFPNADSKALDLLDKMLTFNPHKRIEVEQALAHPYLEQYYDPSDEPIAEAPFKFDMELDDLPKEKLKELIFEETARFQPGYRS

IC50 [1]: 0.003 µM | IC50 [2]: 3.9 nM | inhibition at 10 µM [3]: 55% | inhibition at 10 µM [4]: 0%
Compound: Cc1nc2cnc3cc(F)c(-c4ccc(Oc5ncccn5)cc4Cl)cc3c2n1[C@H]1CCN(C(=O)CO)C[C@@H]1F [Example 1A, 1-((3S,4S)-4-(8-(2-chloro-4-(pyrimidin-2-yloxy)phenyl)-7-fluoro-2-methyl-1H-imidazo[4,5-c]quinolin-1-yl)-3-fluoropiperidin-1-yl)-2-hydroxyethanone]

Reference: patent US10011599B2 (priority 2013, dated 2018)
